Where “and” joins values, the source holds several entries; their conditions need not be identical. Equal entries are not always repeated. Structures can show the parent of a compound that is named as a salt.

The first test has as its system ovarian cancer cells with (OVCAR8, OVCAR4) or without (OVSAHO, CAOV3) MYC-HSF1 amplification. Nature of the test: Epigenetic inhibitor drug screen, cell viability (Cell Titer Blue).
Settings: not given
Type of test: cell-based. (Resazurin is reduced to fluorescent resorufin, in cell work by metabolically active cells.)
Regarding `CCCCCCCCCCCCCC(=O)O[C@@H]1[C@@H](C)[C@@]2(O)[C@@H](C=C(CO)C[C@]3(O)C(=O)C(C)=C[C@@H]23)[C@@H]2C(C)(C)[C@]12OC(C)=O` [12-O-tetradecanoyl phorbol-13-acetate], the “Non Amp - AMP (POC) 10 uM” value is −2.545 POC.
`NC(=O)c1ncn([C@@H]2O[C@H](CO)[C@@H](O)[C@H]2O)c1N` [AICAR]: the “Non Amp - AMP (POC) 10 uM” value came out at 11.27 POC.
Take `CCC(=O)CCCCC[C@@H]1NC(=O)[C@H]2CCCCN2C(=O)[C@H]([C@@H](C)CC)NC(=O)[C@H](Cc2cn(OC)c3ccccc23)NC1=O` [Apicidin]: the “Non Amp - AMP (POC) 10 uM” value was 45.97 POC.
The same measure, in the same setting: under `CCN1CCN(C(=O)Cc2ccc(Nc3ncc(F)c(Nc4ccc(C(=O)Nc5ccccc5Cl)cc4)n3)cc2)CC1` [Aurora A Inhibitor I] stands 8.339 POC; under `O=C(Nc1cccc(Nc2nccc(Nc3cccc(C(F)(F)F)c3)n2)c1)C1CC1` [Aurora Kinase Inhibitor III], −0.3226 POC.

The same test, now with this note: 10 uM, 48 hrs; average relative cell viability (vs 1% DMSO) of non-amplified cells (OVSAHO, CAOV3) minus that of MYC-HSF1 amplified cells (OVCAR8, OVCAR4); positive = greater response in amplified cells.
For the compound `BrC1C(Br)C(Br)C(Br)C(Br)C1Br` (stereo not shown) [1,2,3,4,5,6-Hexabromocyclohexane], the “Non Amp - AMP (POC) 10 uM” value was −13.98 POC.
On the same count and under the same terms, under `COc1cc2c(cc1O)CC[C@@H]1[C@@H]2CC[C@]2(C)[C@@H](O)CC[C@@H]12` [2-Methoxyestradiol (2-MeOE2), 2-Methoxyestradiol] stands 23.41 POC.
In the case of `C#CCC(CCCCCC)C(=O)O` (stereo not shown) [2-hexyl-4-Pentynoic Acid], the “Non Amp - AMP (POC) 10 uM” value stood at 2.599 POC.
Consider `O=c1[nH]cnc2ccccc12` [4-HQN], for which the “Non Amp - AMP (POC) 10 uM” value was −1.37 POC.
Same read-out and setting: under `O=C(CCCCCCC(=O)Nc1ccc(I)cc1)NO` [4-iodo-SAHA] stands 29.5 POC.
The same measure, in the same setting: under `Cn1cc(-c2ccc(S(=O)(=O)n3ccc(/C=C/C(=O)Nc4ccccc4N)c3)cc2)cn1` [4SC-202] stands 15.57 POC.
Still for that read-out and setting: under `Cc1cn([C@H]2C[C@H](O)[C@@H](CO)O2)c(=O)nc1N` [5-Methyl-2′-deoxycytidine] stands −10.37 POC; under `CCCCC[C@H](O)CC(=O)CCc1ccc(O)c(OC)c1` [6-gingerol], −6.674 POC.
As to `O=C([O-])[C@@]1(CCCCCCOc2ccc(Cl)cc2)CO1.[Na+]` [(R)-(+)-Etomoxir sodium salt], the “Non Amp - AMP (POC) 10 uM” value is reported as 3.941 POC.
Still for that read-out and setting: under `Clc1cc2c(NC3CCCC3)nnc(-c3ccncc3)c2cc1Cl` [A-196] stands 2.334 POC; under `N#Cc1c(O)c2c(-c3ccc(-c4ccccc4O)cc3)csc2[nH]c1=O` [A-769662], −2.694 POC; under `NC(=O)c1cccc2[nH]c(-c3ccc([C@@H]4CCCN4)cc3F)nc12` [A-966492], 13.6 POC.
Same read-out and setting: under `O=C(NCc1ccncc1)C12CC3CC(C1)CC(c1ccc(Cl)cc1)(C3)C2` [ABC294640] stands 4.657 POC.
The same measure, in the same setting: under `O=C(CCCCCCNC(=O)c1cnc(N(c2ccccc2)c2ccccc2Cl)nc1)NO` [ACY-241] stands 35.17 POC; under `N#C/C(=C/c1ccc(O)c(O)c1)C(=O)NCc1ccccc1` [AG-490], −10.83 POC; under `CN(C)Cc1ccc(-c2nc3cccc4c3n2CCNC4=O)cc1` [AG-14361], 0.2059 POC.
For the compound `Cc1csc(-c2nnc(Nc3ccc(Oc4ncccc4-c4ccnc(N)n4)cc3)c3ccccc23)c1` [AMG-900], the “Non Amp - AMP (POC) 10 uM” value is given as 4.126 POC.
The same measure, in the same setting: under `CC(C)[C@H](C(=O)Nc1ccc(C(=O)NO)cc1)c1ccccc1` [AR-42 (OSU-HDAC42)] stands −6.14 POC; under `O=C(Nc1c[nH]nc1-c1nc2ccc(CN3CCOCC3)cc2[nH]1)NC1CC1` [AT9283], −1.133 POC; under `N[C@@H]1CCCN(c2c(/C=C3\SC(=O)NC3=O)cccc2-c2ccccc2)C1` [AZD1208], 10.38 POC.
Regarding `Cc1cc(Nc2nc(N[C@@H](C)c3ncc(F)cn3)ncc2Cl)[nH]n1` [AZD1480], the “Non Amp - AMP (POC) 10 uM” value is on record as 0.4361 POC.
The same measure, in the same setting: under `COC1CCN(C(=O)c2cc(Cc3n[nH]c(=O)c4ccccc34)ccc2F)CC1` [AZD2461] stands 9.593 POC; under `COc1nnc2ccc(N3CCC(c4ccc(OCCN5CCN(C)C(=O)[C@H]5C)cc4)CC3)nn12` [AZD 5153], 11.52 POC.
Take `CCN(CC)Cc1cc(Nc2ccnc3cc(Cl)ccc23)ccc1O` [Amodiaquine dihydrochloride dihydrate]: the “Non Amp - AMP (POC) 10 uM” value is −0.1196 POC.
As to `Cc1cc(-c2nc(-c3ccc(OC(F)(F)F)cc3)no2)nn1Cc1ccnc(N2CCN(C3CC3)CC2)c1` [BAY 87-2243], the “Non Amp - AMP (POC) 10 uM” value stood at 11.79 POC.
Take `Cn1cc(CCn2cnc(-c3cnn(C)c3)c2-c2ccc(C#N)cc2)cn1` [BAZ2-ICR]: the “Non Amp - AMP (POC) 10 uM” value worked out at 13.57 POC.
Same read-out and setting: under `Nc1ccccc1NC(=O)c1cnccn1` [BG45] stands 25.74 POC; under `COc1cc(-c2cn(C)c(=O)c3cnccc23)cc(OC)c1CN(C)C` [BI-7273], −8.336 POC.
As to `COc1cc(-c2cn(C)c(=O)c3cnccc23)c(OC)cc1CN(C)C` [BI-9564], the “Non Amp - AMP (POC) 10 uM” value was determined as 11 POC.
In the case of `COc1cc2nc(N3CCCN(C)CC3)nc(NC3CCN(Cc4ccccc4)CC3)c2cc1OC` [BIX 01294], the “Non Amp - AMP (POC) 10 uM” value is −4.372 POC.
Still for that read-out and setting: under `CCOC(=O)C1=CN(Cc2ccccc2)C=C(C(=O)OCC)C1c1ccccc1` [BML-278] stands 4.191 POC; under `Cn1ncnc1[C@H]1c2n[nH]c(=O)c3cc(F)cc(c23)N[C@@H]1c1ccc(F)cc1` [BMN 673], −11.28 POC.
On the same count and under the same terms, under `Cn1ncnc1C1c2n[nH]c(=O)c3cc(F)cc(c23)NC1c1ccc(F)cc1` (stereo not shown) [BMN-673 8R, 9S] stands −2.489 POC; under `Cc1ccc2nc(NCCN)c3ncc(C)n3c2c1` [BMS-345541 (free base)], 19.27 POC.
As for `CCn1c(C(=O)N(C2CC2)C2CC2)cc2c3c(ncn3C)c(Nc3cc(C)n(C)n3)nc21` [BMS-911543], the “Non Amp - AMP (POC) 10 uM” value is given as 1.85 POC.

Still in this test, the particulars now being: 10 uM, 48 hrs; average relative cell viability (vs 1% DMSO) of non-amplified cells (OVSAHO, CAOV3) minus that of MYC-HSF1 amplified cells (OVCAR8, OVCAR4); positive = greater response in amplified cells; 10 µM.
In the case of `N[C@@H]1C[C@H]1c1ccccc1` (racemic) [Tranylcypromine (hydrochloride), Tranylcypromine], the “Non Amp - AMP (POC) 10 uM” value was 0.7437 POC.
Still for that read-out and setting: under `O=C(O)c1ccnc(C(=O)O)c1` [2,4-Pyridinedicarboxylic Acid (hydrate), 2,4-Pyridinedicarboxylic Acid] stands 10.85 POC.
For `O=C(O)c1ccnc(C(=O)O)c1` [2,4-Pyridinedicarboxylic Acid], the “Non Amp - AMP (POC) 10 uM” value is −1.887 POC.
On to `Nc1nccc2c1ncn2[C@@H]1C=C(CO)[C@@H](O)[C@H]1O` [3-Deazaneplanocin A (DZNep) hydrochloride], for which the “Non Amp - AMP (POC) 10 uM” value was 8.136 POC.
On the same count and under the same terms, under `Nc1nccc2c1ncn2[C@@H]1C=C(CO)[C@@H](O)[C@H]1O` [3-Deazaneplanocin A] stands 28.52 POC; under `O=Nc1ccc(O)c2ncccc12` [5-Nitroso-8-quinolinol], 9.462 POC; under `Nc1nc2nc[nH]c2c(=S)[nH]1` [6-Thioguanine], 12.09 POC.
The same measure, in the same setting: under `Cl.O=C([C@@H](Cc1cccc(C(F)(F)F)c1)NS(=O)(=O)c1cc(F)c2c(c1)CCNC2)N1CCCC1` [(R)-PFI-2 (hydrochloride)] stands 19.35 POC; under `COc1cc2c(cc1OCCCN1CCCC1)N=C(N)C21CCC1` [A-366], 11.91 POC; under `C[C@]1(c2nc3c(C(N)=O)cccc3[nH]2)CCCN1` [ABT-888 (Veliparib), Veliparib], −1.058 POC.
On to `N#C/C(=C\c1ccc(-c2cc(Cl)ccc2Cl)o1)C(=O)Nc1cccc2ncccc12` [AGK 2], for which the “Non Amp - AMP (POC) 10 uM” value came to 24.17 POC.
Still for that read-out and setting: under `O=C(Nc1ccc2c(O)cc(S(=O)(=O)O)cc2c1)Nc1ccc2c(O)cc(S(=O)(=O)O)cc2c1` [AMI-1] stands 19.64 POC and 18.34 POC; under `CCCCCCCCCCCCCCCc1cccc(O)c1C(=O)O` [Anacardic acid], 17.46 POC; under `CC[C@@H]1C(=O)N(C)c2cnc(Nc3ccc(C(=O)NC4CCN(C)CC4)cc3OC)nc2N1C1CCCC1` [BI-2536], 15.69 POC.
With `Nc1ccccc1NC(=O)CCCCCCC(=O)Nc1ccccc1` [BML-210], the “Non Amp - AMP (POC) 10 uM” value is on record as 30.7 POC.

Staying with this test, now noted: 10 uM, 48 hrs; average relative cell viability (vs 1% DMSO) of non-amplified cells (OVSAHO, CAOV3) minus that of MYC-HSF1 amplified cells (OVCAR8, OVCAR4); positive = greater response in amplified cells; listed as A 366, 10 µM.
For `COc1cc2c(cc1OCCCN1CCCC1)N=C(N)C21CCC1` [A-366], the “Non Amp - AMP (POC) 10 uM” value worked out at 3.68 POC.

Still in this test, the particulars now being: 10 uM, 48 hrs; average relative cell viability (vs 1% DMSO) of non-amplified cells (OVSAHO, CAOV3) minus that of MYC-HSF1 amplified cells (OVCAR8, OVCAR4); positive = greater response in amplified cells; listed as AGK2, 10 µM.
On to `N#C/C(=C\c1ccc(-c2cc(Cl)ccc2Cl)o1)C(=O)Nc1cccc2ncccc12` [AGK 2], for which the “Non Amp - AMP (POC) 10 uM” value was 19.96 POC.

Staying with this test, now noted: 10 uM, 48 hrs; average relative cell viability (vs 1% DMSO) of non-amplified cells (OVSAHO, CAOV3) minus that of MYC-HSF1 amplified cells (OVCAR8, OVCAR4); positive = greater response in amplified cells; listed as Anacardic Acid, 10 µM.
Take `CCCCCCCCCCCCCCCc1cccc(O)c1C(=O)O` [Anacardic acid]: the “Non Amp - AMP (POC) 10 uM” value is 5.093 POC.

The test is the same for the next values; noted with them: 10 uM, 48 hrs; average relative cell viability (vs 1% DMSO) of non-amplified cells (OVSAHO, CAOV3) minus that of MYC-HSF1 amplified cells (OVCAR8, OVCAR4); positive = greater response in amplified cells; listed as BI 2536, 10 µM.
For `CC[C@@H]1C(=O)N(C)c2cnc(Nc3ccc(C(=O)NC4CCN(C)CC4)cc3OC)nc2N1C1CCCC1` [BI-2536], the “Non Amp - AMP (POC) 10 uM” value is recorded as −3.682 POC.

Staying with this test, now noted: 10 uM, 48 hrs; average relative cell viability (vs 1% DMSO) of non-amplified cells (OVSAHO, CAOV3) minus that of MYC-HSF1 amplified cells (OVCAR8, OVCAR4); positive = greater response in amplified cells; listed as BML-210(CAY10433), 10 µM.
On to `Nc1ccccc1NC(=O)CCCCCCC(=O)Nc1ccccc1` [BML-210], for which the “Non Amp - AMP (POC) 10 uM” value was determined as 14.33 POC.

Staying with this test, now noted: 10 uM, 48 hrs; average relative cell viability (vs 1% DMSO) of non-amplified cells (OVSAHO, CAOV3) minus that of MYC-HSF1 amplified cells (OVCAR8, OVCAR4); positive = greater response in amplified cells; listed as Tranylcypromine hydrochloride, 10 µM.
As for `N[C@@H]1C[C@H]1c1ccccc1` (racemic) [Tranylcypromine (hydrochloride), Tranylcypromine], the “Non Amp - AMP (POC) 10 uM” value was −0.6348 POC.
